Measurements from US11020414B2, “Antimicrobial compositions with cysteamine” (priority 2010, dated 2021).
Converted amounts (≈) assume the structure as drawn. “And” between values parts separate entries of the source, which are not always exact repeats. Equal entries are not always repeated.

Experiments:
[1] = test system: Pseudomonas aeruginosa Pa14; assay: MIC determination, strain Pa14; format: cell-based
Protocol: (§1) The bacterial inoculum was established by the dilution method from actively-growing cultures in Mueller-Hinton (MH) broth, standardized with 0.5 McFarland turbidity standard as described in the CLSI method M26-A.
(§2) Both the bacterial inoculum and the antimicrobial agents, including the compounds structurally related to cysteamine, were added simultaneously to the plates. The plates were incubated at 37° C. for 24 h and the optical density was read at 625 nm on a microtitre plate reader (BioTek Powerwave XS, Winooski, USA). […]
(§3) A number of compounds related in chemical structure to cysteamine were examined for antimicrobial activity; cystamine (dihydrochloride salt), taurine and 2,3-dimercaptosuccinic acid. Other compounds chemically related to cysteamine are known, but are toxic, and are therefore of no utility in a drug of this nature.

[2] = test system: Pseudomonas aeruginosa Pa058; assay: FIC index of combinations with conventional antibiotics, strain Pa058; format: cell-based; conditions: strain Pa058 (Col^R, Cip^R Tob^R), listed as Cysteamine (NM001)
Protocol: as §1
(§4) Both the bacterial inoculum and the antimicrobial agents, including the compounds structurally related to cysteamine, were added simultaneously to the plates. The plates were incubated at 37° C. for 24 h and the optical density was read at 625 nm on a microtitre plate reader (BioTek Powerwave XS, Winooski, USA). The MIC was obtained as the lowest concentration of antimicrobial showing total inhibition of bacterial growth.
(§5) The FIC corresponds to an interaction coefficient indicating whether the combination of antimicrobial agents is synergistic, additive, antagonist or neutral. The FIC is determined by comparing the activity of an agent in combination (MIC of agent A+agent B) with the activity of the agent alone (MIC of agent A or agent B) as follow (Singh et al., 2000): FIC=MICA[combination]/MICA[alone]+MICB[combination]/MICB[alone]
(§6) Additive combinations of two antimicrobial agents are indicated by a FIC index of 1, whereas a FIC index<1 indicates synergistic combinations. Neutral combinations would give a FIC between 1 and 4, a FIC index higher than 4 indicates antagonist effects between the two antimicrobial agents.
(§7) The FIC was also calculated to assess the interaction of two antimicrobial agents in combination against bacterial samples.

[3] = test system: Pseudomonas aeruginosa Pa57388D; assay: FIC index of combinations with conventional antibiotics, strain Pa57388D; format: cell-based; conditions: strain Pa57388D (Col^R, Gent^R), listed as Cysteamine (NM001)
Protocol: as §1, §4, §5, §6, §7

[4] = test system: Pseudomonas aeruginosa Pa14; assay: FIC index of combinations with conventional antibiotics, strain Pa14; format: cell-based; conditions: strain Pa14 (Col^R)
Protocol: as §1, §4, §5, §6, §7

[5] = test system: P. aeruginosa PAO1 planktonic cells; assay: MIC in physiologically-relevant ionic concentrations (FIG. 7); format: cell-based, Pseudomonas aeruginosa
Protocol: Bacterial growth was followed over a 24 h period and absorbance read using a BioTek microtitre plate reader at 625 nm. Total bacterial growth inhibition was retained in the presence of NaCl, CaCl2 or DNA and at two-fold the normal MIC100 in the presence of mucin. Tobramycin activity was inhibited in the presence of the divalent cation ca^2+ and in the presence of the anionic polymer DNA. […] A similar method as described above (1.4) was used for the determination of the antimicrobial activity of cysteamine (Lynovex®) in the presence of high ionic concentrations. […] Bacterial growth was followed over a 24 h period and absorbance read using a BioTek microtitre plate reader at 625 nm.

[6] = test system: Pseudomonas aeruginosa NH57388A; assay: MIC determination, strain NH57388A; format: cell-based
Protocol: as §1, §2, §3

[7] = test system: Pseudomonas aeruginosa Pa01; assay: MIC determination, strain Pa01; format: cell-based
Protocol: as §1, §2, §3

[8] = test system: P. aeruginosa PAO1 biofilms; assay: Post-antimicrobial effect and metabolic activity of biofilms after treatment (FIG. 9, 10); format: cell-based, Pseudomonas aeruginosa; conditions: 24 h following treatment of the biofilms
Protocol: FIG. 9: is a graph showing the post-antimicrobial effect of cysteamine (NM001) in combination with Tobramycin versus P. aeruginosa PAO1 biofilms. […] The PAE was determined by transfer of 10 μl biofilm cultures into 90 μl sterile MH broth in triplicate in microtitre plates following treatment. Bacterial growth was followed on a BioTek plate reader for 24 h at 37° C. Microbial metabolic activity following treatment of the biofilms was determined using the same method as for PAE determination and adding 10% (v/v) of a fluorescent cell viability indicator, resazurin (Alamar Blue, Serotec), which detected microbial metabolic activity growth by increase in fluorescence. Fluorescence was measured over 24 h at 37° C. using a BioTek Synergy HT microplate reader (BioTek, Winooski, USA) at 530/590 nm.

[9] = test system: P. aeruginosa PAO1 biofilm; assay: Minimum biofilm eradication concentration against established biofilm (FIG. 4); format: cell-based, Pseudomonas aeruginosa
[10] = test system: Pseudomonas aeruginosa Pa058; assay: MIC determination, strain Pa058; format: cell-based
Protocol: as §1, §2, §3

[11] = test system: 4 P. aeruginosa (PAO1, ATCC27853, DSMZ1128 and DSMZ1299) and 2 B. cepacia complex strains (NCTC10743 and NCTC10744); assay: microbe, parasite or virus in culture; format: cell-based, Pseudomonas aeruginosa; Burkholderia cepacia complex; conditions: Pseudomonas aeruginosa, read-out: MIC100
Description: The complex pathophysiology of CF is characterized by airway obstruction caused by abnormal mucus secretion and infection, with 60-80% of patients being chronically infected with the biofilm-forming bacteria Pseudomonas aeruginosa (George et al., 2009). With a prevalence of up to 10% in adult CF patients, B. cepacia complex is a rare but major concern due to its high virulence, morbidity and transmissibility (O'Malley, 2009; Brüssow, 2012). We tested the antimicrobial activity of cysteamine-tobramycin combinations in artificial sputum medium (Yang, et al., 2011) against 4 P. aeruginosa (PAO1, ATCC27853, DSMZ1128 and DSMZ1299) and 2 B. cepacia complex strains (NCTC10743 and NCTC10744).

[12] = in combination with Ciprofloxacin

## NCCS [Cysteamine, cysteamine]
[1]
  MIC50: 125 to 250 µg/mL (≈ 1.62 to 3.24 mM)
  MIC90: 500 µg/mL (≈ 6.48 mM)
[1]; read-out: MIC100
  MIC: 1330 µg/mL (≈ 17.3 mM)
[2]; [12]
  FICI (Additive) Cip: 0.53 and 0.56
[2]; in combination with Colistin
  FICI (Additive) Col: 0.75 and 0.53 and 0.56 and 0.5
[2]; in combination with Gentamicin
  FICI (Additive) Gent: 0.56 and 0.5 and 0.75
[2]; in combination with Tobramycin
  FICI (Additive) Tob: 0.52 and 0.56 and 0.5 and 0.53 and 0.63 and 0.75
[3]; [12]
  FICI (Additive) Cip: 0.53 and 0.56 and 0.52 and 0.75
[3]; in combination with Colistin
  FICI (Additive) Col: 0.62 and 0.53 and 0.56 and 0.5
  FICI (Synergy) Col: 0.31 and 0.38
[3]; in combination with Gentamicin
  FICI (Additive) Gent: 0.5 and 0.63 and 0.51
  FICI (Synergy) Gent: 0.38
[3]; in combination with Tobramycin
  FICI (Additive) Tob: 0.56 and 0.51 and 0.52
  FICI (Synergy) Tob: 0.38 and 0.31 and 0.25
[4]; in combination with Ciprofloxacin, listed as Cysteamine (NM001)
  FICI (Additive) Cip: 0.75 and 0.63
[4]; in combination with Colistin
  FICI (Synergy) Col: 0.38
[4]; in combination with Colistin, listed as Cysteamine (NM001)
  FICI (Additive) Col: 0.53 and 0.5 and 0.56
[4]; in combination with Gentamicin, listed as Cysteamine (NM001)
  FICI (Additive) Gent: 0.63 and 0.5 and 0.75
[4]; in combination with Tobramycin, listed as Cysteamine (NM001)
  FICI (Additive) Tob: 0.56 and 0.75 and 0.5
[5]; in the presence of 150 mM NaCl, 1.7 mM CaCl2 or 1 mg/ml DNA
  total bacterial growth inhibition (MIC100) versus normal condition: retained
[5]; in the presence of 1% (w/v) porcine gastric mucin
  concentration for total growth inhibition relative to the normal MIC100: two-fold
[6]
  MIC50: 250 µg/mL (≈ 3.24 mM)
  MIC90: 250 to 500 µg/mL (≈ 3.24 to 6.48 mM)
[6]; read-out: MIC100
  MIC: 667 µg/mL (≈ 8.64 mM)
[7]
  MIC50: 250 to 500 µg/mL (≈ 3.24 to 6.48 mM)
  MIC90: 500 µg/mL (≈ 6.48 mM)
[7]; read-out: MIC100
  MIC: 667 µg/mL (≈ 8.64 mM)
[8]
  post-antimicrobial effect (delayed bacterial growth, reduced metabolic activity of the biofilm): significant PAE
[9]
  minimum biofilm eradication concentration (MBEC), agent alone: 1000 µg/mL
[10]
  MIC50: 500 µg/mL (≈ 6.48 mM)
  MIC90: 1000 µg/mL (≈ 13 mM)
[10]; read-out: MIC100
  MIC: 1000 µg/mL (≈ 13 mM)
[11]
  MIC: 250 to 500 µg/mL
